Data taken from patent US20120029054A1, “RNA Interference Mediated Inhibition of GATA Binding Protein 3 (GATA3) Gene Expression Using Short Intefering Nucleic Acid (siNA)” (Merck Sharp & Dohme Corp., priority 2009, published 2012).

Tests used:
[1] = tested on: human GAPDH mRNA; test: GAPDH specificity screen in human MCF7 cells (β-Actin normalised qRT-PCR); type: cell-based; conditions: normalised to β-Actin, three experiments, mean ± S.D.
Procedure: A series of probes and primers were used to detect the various mRNA transcripts of the genes of β-Actin (human cell line only), and of GATA3 and GAPDH in mouse and human cell lines. All Taqman probes and primers for the experiments here-in described were supplied as pre-validated sets by Applied Biosystems, Inc. (see Table 2).
The assays were performed on an ABI 7900 instrument, according to the manufacturer's instructions. A TaqMan Gene Expression Master Mix (provided in the Cells-to-CT™, Applied Biosystems, Cat #4399002) was used. The PCR reactions were carried out at 50° C. for 2 min, 95° C. for 20 min followed by 40 cycles at 95° C. for 15 secs and 60° C. for 1 min.
The expression level of the gene of interest and % knock-down was calculated using Comparative Ct method: […]
These same three siNAs were tested for specificity in the human MCF7 cell line at 10 nM concentration to determine the effect of the GATA3 siNAs on the mRNA transcript of human GAPDH. In this assay, the samples from the primary screen, discussed above, O-Actin, a ubiquitously expressed ‘house-keeping’ gene, served as an endogenous control for normalization of the data.

[2] = tested on: GATA3 protein; test: GATA3 Western Blot in transfected MCF7 cells (6-well plate); type: cell-based, human; conditions: 30 nM, 48 hours, average band ratio ± S.D.
Procedure: MCF7 cells were plated in 6-well plates at final counts of 70,000 cells/well in 2 ml of complete growth media. Transfection was performed using 2.5 uL of RNAiMax per well. Final concentration of siNAs was 30 nM (screen) and 30, 0.3, and 0.003 nM (dose response study). Protein lysates were harvested 24, 48, and 72 hours post-transfection (screen) and 72 hours post-transfection (dose response study). Protein lysates were prepared using Cell Disruption Buffer from the PARIS kit (Ambion, cat #1921) according to manufacturer's instructions. Protein concentration was measured using a Bradford Quick Start Kit (Bio-Rad, cat#500-0205).
The protein source for the Western Blot experiments were from transfection of MCF7 cells in a 6 well plate, as described above.
Protein samples were diluted 1:1 in 2× Laemmli buffer with 5% β-mercapto-ethanol and incubated at 95° C. for 5 minutes. 20-40 ug of protein was loaded in each lane of 10% Tris-HCl gel. One lane was designated for MagicMark Protein Standard (Invitrogen # LC5602). The gel was run at 100V for approximately 2 hours. Protein was transferred to a PVDF membrane at 100V for 60 minutes. Once the transfer was finished, the membrane was blocked in 1% Casein in PBS (BioRad Cat#161-0783) for 1 hour on a plate rocker at room temperature followed by the overnight incubation at 4° C. with mouse monoclonal anti-GATA3 primary antibody (Santa Cruz Biotechnology, cat# HG3-31) diluted 1:500 in 1% Casein in PBS. On the next day, the blot was washed 4×5 minutes in PBST (0.1% Tween-20 in PBS) solution and incubated for 30 minutes at room temperature with goat anti-mouse secondary antibody (Pierce Biotechnology, cat#3 31430) diluted 1:20,000 in 1% Casein. […]
The protein bands were quantified by computing their density which is defined by the ratio between the total intensity of all pixels and the area of the rectangle drawn around each band (intensity/mm^2). The density was calculated by the BioRad software.
The level of protein was quantified using the Bio-Rad VersaDoc Imager according to the protocols of that piece of equipment. […]

“30263-DC: GATA3 siNA duplex, site 817: sense B cGccucuGcuucAuGGAuc TTB (SEQ 79), antisense GAUccAuGAAGcAGAGGcGUU (SEQ 80) (sense CGCCUCUGCUUCAUGGAUCTT; antisense GAUCCAUGAAGCAGAGGCGUU; chemistry not fully specified)” was tested, and the “% KD GAPDH 10 nM” value [1] was 11 ± 4% and the “Density (GATA3)/Density (α-Tubulin)” value [2] was 0.016 ± 0.0003.
